Laboratory results published in PubChem BioAssay (NCI).
“And” between values parts separate entries of the source, which are not always exact repeats. Equal values may be shown once.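 Where inhibition never reached the appropriate level, the endpoint shown equals the highest concentration tested. Otherwise, values were interpolated linearly from a five-concentration, 48-hour dose response in 96-well plates. Here, GI50 denotes the concentration required for 50% inhibition of growth. At the TGI there is no net growth.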

Tests used:
Assay in all cases: DTP human tumour cell line panel, 48 h
[1] = tested on: NCI-H522 lung
[2] = tested on: SF-539 CNS
[3] = tested on: SW-620 colon
[4] = tested on: NCI-H460 lung
[5] = tested on: TK-10 renal
[6] = tested on: HOP-92 NSCLC
[7] = tested on: OVCAR-3 ovarian
[8] = tested on: 786-0 renal
[9] = tested on: BT-549 breast
[10] = tested on: SNB-19 CNS

SMILES | GI50 [1] | TGI [1] | GI50 [2] | TGI [2] | GI50 [3] | TGI [3] | GI50 [4] | TGI [4] | GI50 [5] | TGI [5] | GI50 [6] | TGI [6] | GI50 [7] | TGI [7] | GI50 [8] | TGI [8] | GI50 [9] | TGI [9] | GI50 [10] | TGI [10]
Cn1cc(-c2csc(-c3cn(C(=O)OC(C)(C)C)c4ccccc34)n2)c2cccnc21 | 3.84 µM | 25.4 µM | 3.51 µM | 17.4 µM | 4.53 µM | 21.6 µM | 3.92 µM | 17.7 µM | 15.9 µM | 42.2 µM | 3.81 µM | 19.9 µM | 2.26 µM | 5.61 µM | 4.92 µM | 16.4 µM | 6.87 µM | 21.2 µM | 10.4 µM | 30.1 µM
NC1=C(O)C(=O)C(c2c[nH]c3ccc(OCc4ccccc4)cc23)O1 (configuration not stated) | – | > 100 µM | – | > 100 µM | – | > 100 µM | – | > 100 µM | – | > 100 µM | – | > 100 µM | – | > 100 µM | – | > 100 µM | – | > 100 µM | – | > 100 µM
CCOC(=O)N(O)c1ccc(/C=C/c2ccccc2)cc1 | 7 µM | 28 µM | 17.1 µM | 40.1 µM | 5.3 µM | 25.1 µM | 0.913 µM | 15.6 µM | 2 µM | 6.75 µM | 4.96 µM | 35.7 µM | 3.16 µM | 15.7 µM | 10.9 µM | > 51.1 µM | 9.38 µM | 40 µM | 18.5 µM | > 100 µM
O=C1C=CC(=O)c2c(O)c(N(CCCl)CCCl)c(Cl)c(O)c21 | – | 6.01 µM | – | > 7.9 µM | – | 6.56 µM | – | > 10 µM | – | 4.93 µM | – | 5.78 µM | – | 7.25 µM | – | > 7.67 µM | – | > 7.26 µM | – | > 10 µM
N=C1C=C(N)C(=O)c2ccccc21 | 0.17 µM | 0.342 µM | 0.181 µM | 0.347 µM | 0.22 µM | 0.509 µM | 1.81 µM | 4.01 µM | 0.599 µM | 1.7 µM | 0.207 µM | 0.496 µM | 0.139 µM | 0.281 µM | 0.202 µM | 0.406 µM | 0.452 µM | 0.929 µM | 0.598 µM | 1.97 µM
CC[C@@H](C(=O)[C@@H](C)[C@@H](O)[C@H](C)[C@@H]1O[C@@H]([C@@H](CC)C(=O)O)CC[C@@H]1C)[C@H]1O[C@]2(C=C[C@@H](O)[C@]3(CC[C@@](C)([C@H]4CC[C@](O)(CC)[C@H](C)O4)O3)O2)[C@H](C)C[C@@H]1C | 0.0469 µM | 0.47 µM | 0.806 µM | 5.27 µM | 1.56 µM | 12.6 µM | 0.441 µM | 11.9 µM | 0.942 µM | 17.8 µM | 0.266 µM | 5.1 µM | 0.166 µM | 25.8 µM | 1.25 µM | 19.2 µM | 0.248 µM | 4.33 µM | 0.689 µM | 5.97 µM
O=C1CC2OCC=C3CN4CCC5(C(=O)O)C(N1)C2C3CC45 (configuration not stated) | – | > 100 µM | – | > 100 µM | – | > 100 µM | – | > 100 µM | – | > 100 µM | – | > 100 µM | – | > 100 µM | – | > 100 µM | – | > 100 µM | – | > 100 µM
O=C(/C=C/c1ccc(Cl)cc1Cl)c1ccc(Cl)cc1Cl | – | 1.16 µM | 20.7 µM | > 54.9 µM | 9.22 µM | 47.3 µM | 42.1 µM | > 100 µM | 28 µM | > 73.2 µM | 50.8 µM | > 76.1 µM | 20.6 µM | 48.1 µM | 22 µM | 61.8 µM | 16 µM | 36.1 µM | 29 µM | > 100 µM
CN(C)Cc1cc(C(C)(C)C)cc(CN(C)C)c1O | – | > 100 µM | – | > 100 µM | – | > 100 µM | – | > 100 µM | – | > 100 µM | – | > 100 µM | – | > 100 µM | – | > 100 µM | – | > 100 µM | – | > 100 µM
COC(=O)Nc1nc2ccc(C(=O)c3cccs3)cc2[nH]1 | 0.0139 µM and 0.107 µM | 0.0606 µM | 0.0259 µM and 0.21 µM | – | 0.0672 µM | > 100 µM | 0.239 µM | – | – | 60.4 µM and > 100 µM | > 100 µM | – | 0.0192 µM and 0.0664 µM | – | 0.261 µM | 29.8 µM and > 100 µM | – | 4.33 µM | 0.359 µM | 42.5 µM and > 100 µM
O=C(N/N=C/c1ccc(N(CCCl)CCCl)cc1)c1ccc(C(=O)N/N=C/c2ccc(N(CCCl)CCCl)cc2)cc1 | 0.465 µM | > 100 µM | 0.612 µM | 47.3 µM | 19.5 µM | > 100 µM | 0.038 µM | > 100 µM | > 100 µM | > 100 µM | 4.98 µM | 88.3 µM | 19 µM | > 100 µM | 2.55 µM | > 100 µM | 2.34 µM | 76.5 µM | 38.6 µM | > 100 µM
COC(=N)CCCl | – | > 100 µM | – | > 100 µM | – | > 100 µM | – | > 100 µM | – | > 100 µM | – | > 100 µM | – | > 100 µM | – | > 100 µM | – | > 100 µM | – | > 100 µM
Cc1c2ccccc2c(C)n2c1nc1cc(Cl)c(Cl)cc12 | 15.1 µM | 80.3 µM | > 100 µM | > 100 µM | 74.1 µM | > 100 µM | 27.4 µM | > 100 µM | > 100 µM | > 100 µM | > 100 µM | > 100 µM | 18.6 µM | – | > 100 µM | > 100 µM | > 100 µM | > 100 µM | > 100 µM | > 100 µM
